# Test results as given in patent US6172205A, “Synthetic process toward total synthesis of eleutherobin and its analogues and uses thereof” (The Trustees of Columbia in the City of New York, priority 1998, dated 2001).
# Entries after “also recorded” stand apart in the source; their conditions may differ.
# Columns and labels:
# microtubule protein = assay: Stability of microtubules against Ca++-induced depolymerization; assay type: biochemical, calf; conditions: 10 mM CaCl2
# Experimental: Eleutherobin and its derivatives were synthesized as described (18,19). Taxol was obtained from the Drug Development Branch, National Cancer Institute (Bethesda, Md.). All compounds were dissolved in dimethyl sulfoxide (Sigma Chemical Co., St. Louis, Mo.) at stock concentrations of 5 mM and stored at -20° C. All control samples contained an equal volume of DMSO. GTP was obtained from Sigma Chemical Co. And dissolved in sterile distilled water at a concentration of 10 mM and stored at -20° C. Microtubule protein was purified from calf brains by two cycles of temperature-dependent assembly and disassembly (20) and stored in liquid nitrogen prior to use. The anti-mouse β-tubulin monoclonal antibody T-4026 was obtained from Sigma Chemical Co.
# The ability of each compound to polymerize tubulin was evaluated by recording the change in turbidity of microtubule protein at 350 nm for 80 min in a spectrophotometer (UVIKON, Research Instruments Int., SD, Calif.). One mg of purified microtubule protein was diluted in assembly buffer containing 0.1 M MES, 1 mM EGTA, 0.5 mM MgCl2 and 3 M glycerol, pH 6.6. All compounds were evaluated at a concentration of 10 μM at 37° C. GTP was used at a final concentration of 1 mM. Microtubule stability was assessed by the addition of 10 mM Ca^++. changes from t=0-10 min were used to calculate initial slopes from the linear portion of each curve. These values were used to calculate the activity of each compound (relative to the activity of Taxol which was assigned a value of 100%).
# The ability of each compound to polymerize and/or stabilize microtubules was assessed (FIG. 7). To investigate whether eleutherobin and its derivatives shared the microtubule stabilizing properties of Taxol, 10 mM CaCl2 was added to each sample after maximum microtubule polymerization occurred, and the effects on turbidity recorded spectrophotometrically. A positive control was included in which 1 mM GTP was used to confirm the ability of GTP-stabilized microtubules to undergo Ca^++ induced depolymerization.
# The ability of this compound to stabilize microtubules formed in the presence of GTP was examined. After a period of 15 min, 10 mM Ca^++ was added and the change in turbidity recorded.
# P-glycoprotein = P-glycoprotein substrate behaviour inferred from resistance of SKVBL cells; assay type: cell-based, human
# Experimental: (§1) Human non-small cell lung carcinoma cells, A549, were maintained in RPMI 1640 containing 10% fetal bovine serum and 1% penicillin-streptomycin (Gibco Laboratories, Grand Island N.Y.) at 37° C. in 7% CO2. The Taxol-resistant cell line A549-T12 was selected for resistance to Taxol and maintained in a final concentration of 12 nM drug (21). Human ovarian carcinoma cells SKOV3 and the MDR variant SKVBL (obtained from Dr. V. Ling) were maintained in α-mem plus ribonucleotides, deoxynucleotides, 15% fetal bovine serum and 1% penicillin-streptomycin (Gibco Laboratories) at 37° C. in 5% CO2. SKVBL cells were maintained in […] vinblastine (Sigma Chemical Co.).
# (§2) Taxol-resistant and sensitive cell lines were seeded into 12-well plates at a density of 5×10^4 cells per well and allowed a period of 12 h for attachment prior to treatment. Cells were exposed to 10-fold serial dilutions of each compound (10^-10 to 10^-6 M) for 72 h. Cells were then trypsinized and counted (Coulter counter model ZF0031, Coulter Corp., Miami, Fla.). The IC50 was determined by plotting cell number against log of the drug concentration and this was used to determine the concentration of compound resulting in 50% growth inhibition compared to untreated cells. Each cell line was assayed in a minimum of 3 independent experiments with each compound and the results expressed as the mean IC50.
# (§3) The cytotoxic efficacy of eleutherobin and its derivatives (FIG. 6) was evaluated in two drug sensitive human cancer cell lines and their Taxol-resistant counterparts. The results are summarized in Table I in order of decreasing potency. […] The Taxol-resistant cell line SKVBL overexpresses high levels of P-glycoprotein (22). […] The only difference between the two agents is the enantiomeric relationship in the carbohydrate (2'-acetylarabinose) sector (FIG. 6). […] This cell line expressed high levels of MDR1 resulting in Taxol-resistance equal or greater than 1666 -fold compared to the Taxol-sensitive SKOV3 cell line.
# [1] = system: SKVBL (MDR variant of SKOV3); assay: Cytotoxicity by counting cells after 72 h, MDR variant cells; assay type: cell-based, human
# Experimental: as §1, §2, §3
# ^a Cytotoxicity determined by counting cells after 72 h drug exposure.
smiles,measurement,setting,value
CO[C@]12C=C[C@](C)(O1)[C@@H](OC(=O)/C=C/c1cn(C)cn1)C[C@H]1C(C)=CC[C@H](C(C)C)[C@H]1/C=C\2CO[C@@H]1OC[C@@H](O)[C@@H](O)[C@@H]1OC(C)=O [Eleutherobin],stabilization against Ca++-induced depolymerization (in words),microtubule protein,stabilized microtubules against Ca^++ -induced depolymerization
same,P-glycoprotein substrate (in words),P-glycoprotein,excellent substrates for P-glycoprotein
same,IC50,"[1]; Homo sapiens, SK-OV-3, Ovarian Carcinoma SKOV3, Resistant (SKVBL), 72 h, mean of at least three independent experiments",> 1000 nM
same,cross-resistance in SKVBL (in words),"[1]; MDR1 expressing cells, high P-glycoprotein",exhibited cross-resistance in an MDR1 expressing cell line; also recorded: demonstrated cross-resistance
same,fold resistance relative to the parental cell line,[1]; SKVBL vs SKOV3,≥ 1052 fold
